Test results taken from US9006452B2, “Method for imaging zinc activation within a mitochondrion using a two-photon fluorescent probe, and method for manufacturing the two-photon fluorescent probe” (AJOU University Industry-Academic Cooperation Foundation, priority 2011, dated 2015).

Columns and labels:
[1] = Selectivity for metal cations in MOPS buffer; type: physicochemical; details: MOPS buffer pH 7.2, 1.0 μM probe
Experimental: The selectivity for metal cations was determined by using the MOPS buffer (30 mM MOPS, 100 mM KCl, 10 mM EGTA, pH 7.2) including the two-photon fluorescent probe. […] However, because there are very little metal ions such as Co^2+, Ni^2+ and Cu^2+ inside the cells, the two-photon fluorescent probe of the present invention has an advantage that it can detect zinc ions (Zn^2+) without the interference caused by competition with other metal ions.

[2] = system: HeLa cells; experiment: Toxicity test using a CCK-8 kit; type: cell-based
Source text: In order to confirm whether the two-photon fluorescent probe of the present invention can detect intracellular zinc ions, the effect of the two-photon fluorescent probe (SZn-Mito) on the cells was examined by the following toxicity test.

[3] = system: HeLa cells; experiment: Light stability of TPEF intensity in labeled HeLa cells; type: cell-based; details: exposure 60 min
[4] = Optical and physical properties of the two-photon fluorescent probe in MOPS buffer; type: physicochemical; details: absence of Zn2+
Experimental: In order to investigate optical and physical properties of the two-photon fluorescent probe (SZn-Mito), the following experiment was carried out by using a MOPS (3-(N-morpholino)propane sulfonic acid) buffer.
(§1) It was predicted as a result of blocking the photo-induced electron transfer (PeT) process caused by complexation with metal ions.

[5] = Effect of pH on one-photon fluorescence intensity; type: physicochemical; details: physiological pH; absence and presence of free Zn2+
[6] = One- and two-photon fluorescence titration with free Zn2+ (dissociation constant, fluorescence enhancement factor); type: binding
Experimental: as §1
As a result of measuring a fluorescence increase factor (FEF=(F−Fmin)/Fmin) value of the two-photon fluorescent probe (SZn-Mito) by one- and two-photon processes, the FEF value was represented as 7 in the presence of excessive zinc ions (Table 1).
MOPS (4-morpholinepropanesulfonic acid) buffers (30 mM, pH 7.2, 0.1 M KCl) including varying amounts of ZnSO4 and 10 mM EGTA (ethylene glycol-bis(2-aminoethylether)-N,N,N′,N′-tetraacetic acid) were prepared.
The concentration of free Zn^2+ ([Zn^2+]free) was calculated from KZn-EGTA^app,[EGTA] total, and [Zn^2+]total by using following Equation 1:
After that, the stability constant of a Zn^2+ complex of EGTA (KZn-EGTA) was obtained by a conventional method known in the art. As a result, for EGTA (pH 7.2, 0.1 M KCl, 25[…]), pK1=9.40, pK2=8.79, pK3=2.70, and log KZn-EGTA=12.6 were obtained.
All protonation constants at 0.1 M ion strength workout were corrected upward by 0.11, [EGTA]total was fixed at 10 mM, and [Zn^2+]total was in the range from 0 to 9.5 mM.
In order to clearly determine a dissociation constant of the two-photon fluorescent probe, FIG. 2c as a fluorescence titration curve was obtained from FIG. 2b by using following Equation 2.
wherein F is a fluorescence intensity. Fmax is a maximum fluorescence intensity, Fo is a fluorescence intensity in the absence of Zn^2+, and [Zn^2+]free is a concentration of free Zn^2+.
Kd values that well complies with the titration curve (FIG. 2c) according to Equation 2 were calculated by using a commercial Origin software. […] A two-photon excitation fluorescence titration curve was obtained, which was fitted to Equation 2 (FIGS. 2c and 2d).

[7] = system: zinc ions within the mitochondria of HeLa cells; experiment: Two-photon microscopy monitoring of zinc ion changes in living HeLa cells; type: cell-based
Experimental: TPEF images were collected at a range from 425-575 nm (fs pulses, 760 nm excitation conditions);
When DTDP (2,2′-dithiodipyridine; […]), reagent capable of inducing dissociation of Zn^2+ ions from Zn^2+-binding proteins, was added to the HeLa cells labeled with the two-photon fluorescent probe (SZn-Mito), the TPEF intensity was increased. When CCCP (carbonyl cyanide m-chlorophenylhydrazone; […]), a compound capable of disrupting a transmembrane potential difference of the mitochondria and increasing the release of cations within the mitochondria, was added thereto, the TPEF intensity was decreased. Also, when the HeLa cells were treated with […] (2-mercaptopyridine N-oxide), a reagent capable of delivering Zn^2+ to the cytoplasm, the TPEF intensity was increased, and when they were treated with CCCP, the TPEF intensity was decreased (FIG. 1).

change of TPEF intensity under continuous fs-pulse radiation (light stability) [3]: not decreased at all
λmax(1), one-photon absorption spectra ([4]; 30 mM MOPS, 100 mM KCl, 10 mM EGTA, pH 7.2): 388 nm
λmax fl, one-photon emission spectra ([4]; MOPS buffer pH 7.2): 500 nm
10^−4 ε, molar excitation coefficient ([4]; MOPS buffer pH 7.2, value is 10^−4 ε): 1.87 M^−1cm^−1
F, fluorescence quantum yield ([4]; MOPS buffer pH 7.2, ±15%): 0.15
reaction to pH (fluorescence intensity) [5]: unreacted at physiological pH
SMILES: CN(CC(=O)NCC[P+](c1ccccc1)(c1ccccc1)c1ccccc1)c1ccc2cc(-c3nc4ccc(NCCN(Cc5ccccn5)Cc5ccccn5)cc4s3)ccc2c1 [SZn-Mito]
fluorescence in the presence of Co2+, Ni2+ and Cu2+ [1]: fluorescence was decreased
selectivity for Cd2+ [1]: relatively high selectivity for Cd^2+
selectivity for Zn2+ compared with Na+, K+, Ca2+, Mg2+, Mn2+, Fe2+ and Fe3+ [1]: higher selectivity for Zn^2+
toxicity to cells (CCK-8 kit) [2]: negligible and extremely low toxicity
detection limit for Zn2+ ([6]; from fluorescence titration): nM range
FEF, fluorescence enhancement factor (F−Fmin)/Fmin, one-photon process ([6]; one-photon, presence of excessive zinc ions): 7
FEF, fluorescence enhancement factor (F−Fmin)/Fmin, two-photon process ([6]; two-photon, presence of excessive zinc ions): 7
TPEF intensity after treatment with Zn2+ and pyrithione ([7]; HeLa cells, 100 mM Zn2+ and 100 mM pyrithione): increased
TPEF intensity after addition of CCCP ([7]; labeled HeLa cells after DTDP, CCCP 10 mM): decreased
TPEF intensity after addition of DTDP ([7]; labeled HeLa cells, DTDP 150 mM): increased
